Experimental data: ChEMBL document CHEMBL5352464, “Structure based design and evaluation of benzoheterocycle derivatives as potential dual HIV-1 protease and reverse transcriptase inhibitors” (Eur J Med Chem, 2023)
pEC50, pIC50: −log10 of the molar value.

Experiments:
[1] = molecular target: Human immunodeficiency virus type 1 reverse transcriptase (Human immunodeficiency virus 1) (UniProt Q72547); test: Inhibition of HIV-1 NL4-3 reverse transcriptase at 100 uM by RT-PCR analysis relative to control
[2] = molecular target: Human immunodeficiency virus type 1 protease (Human immunodeficiency virus 1, UniProt Q72874); test: Inhibition of HIV-1 protease expressed in Escherichia coli using Arg-Glu-(EDANS)-Ser-Gln-Asn-Tyr-Pro-Ile-Val-Gln-Lys-([…])-Arg as substrate preincubated with compound for 20 to 30 mins followed by substrate addition and measured after 10 mins by FRET analysis
[3] = molecular target: Human immunodeficiency virus type 1 reverse transcriptase (Human immunodeficiency virus 1, UniProt Q72547); test: Inhibition of HIV-1 NL4-3 reverse transcriptase by RT-PCR analysis
[4] = test system: Human immunodeficiency virus 1; test: microbe, parasite or virus in culture
[5] = test system: Human immunodeficiency virus 1; test: microbe, parasite or virus in culture; settings: Human immunodeficiency virus 1, NL4-3, SUP-T1, 48 h
Description: Antiviral activity against VSV-G pseudotyped HIV1 NL4-3 infected in human SUP-T1 cells assessed as inhibition of early stage viral replication incubated for 48 hrs by luciferase based analysis

[6] = Selectivity ratio of EC50 for antiviral activity against VSV-G pseudotyped HIV1 NL4-3 infected in human SUP-T1 cells assessed as inhibition of early stage viral replication to EC50 for antiviral activity against VSV-G pseudotyped HIV1 NL4-3 infected in HEK293T cells assessed as inhibition of late stage viral replication; format: functional, Human immunodeficiency virus 1
[7] = Selectivity ratio of EC50 for antiviral activity against DRV-resistant HIV1 mutant to EC50 for antiviral activity against wild-type HIV1 NL4-3 infected in human SUP-T1 cells assessed as inhibition of viral replication; format: functional, Human immunodeficiency virus 1
[8] = test system: Human immunodeficiency virus 1; test: Antiviral activity against wild-type HIV1 NL4-3 infected in human SUP-T1 cells assessed as inhibition of viral replication pre-infected with compound for 1 day followed by compound washout and replaced with fresh medium for 48 hrs and further infected with human TZM-bl cells by lucifrease based analysis; format: functional, organism-based; settings: Human immunodeficiency virus 1, NL4-3, SUP-T1
[9] = test system: Human immunodeficiency virus 1; test: Antiviral activity against VSV-G pseudotyped HIV1 NL4-3 infected in HEK293T cells assessed as inhibition of late stage viral replication pre-infected with cells for 5 hrs followed by compound treatment for 48 hrs and further infected with human SupT1 cells for 48 hrs by luciferase based analysis; format: functional, organism-based; settings: Human immunodeficiency virus 1, NL4-3, HEK-293T

| SMILES | inhibition [1] | pIC50 [2] | pIC50 [3] | further results |
| --- | --- | --- | --- | --- |
| COc1ccc(S(=O)(=O)N(CC(C)C)C[C@@H](O)[C@H](Cc2ccccc2)NC(=O)c2coc3ccccc23)cc1 | < 20% | 5.05 |  |  |
| COc1ccc(S(=O)(=O)N(CC(C)C)C[C@@H](O)[C@H](Cc2ccccc2)NC(=O)c2cc3cc(N)ccc3o2)cc1 | < 20% | 5.28 |  |  |
| COc1ccc(S(=O)(=O)N(CC(C)C)C[C@@H](O)[C@H](Cc2ccccc2)NC(=O)c2c[nH]c3ccccc23)cc1 | < 20% | 4.89 |  |  |
| COc1ccc(S(=O)(=O)N(CC(C)C)C[C@@H](O)[C@H](Cc2ccccc2)NC(=O)c2cc3ccc(O)cc3o2)cc1 | < 20% | 5.70 |  |  |
| COc1ccc(S(=O)(=O)N(CC(C)C)C[C@@H](O)[C@H](Cc2ccccc2)NC(=O)c2cc3ccc(N)cc3o2)cc1 | < 20% | 5.43 |  |  |
| COc1ccc(S(=O)(=O)N(CC(C)C)C[C@@H](O)[C@H](Cc2ccccc2)NC(=O)c2cc3cc(O)c(O)cc3[nH]2)cc1 |  | 5.97 | 4.02 |  |
| CC(C)CN(C[C@@H](O)[C@H](Cc1ccccc1)NC(=O)c1cc2ccc(O)cc2[nH]1)S(=O)(=O)c1ccc(N)cc1 |  | 6.26 | 3.75 |  |
| COc1ccc(S(=O)(=O)N(CC(C)C)C[C@@H](O)[C@H](Cc2ccccc2)NC(=O)c2cc3ccccc3o2)cc1 |  | 5.04 | 4.18 |  |
| COc1ccc(S(=O)(=O)N(CC(C)C)C[C@@H](O)[C@H](Cc2ccccc2)NC(=O)c2cc3cc(O)c(O)cc3o2)cn1 |  | 5.64 | 5.24 | pEC50 [4]: 4.77; pEC50 [5]: 4.84; Ratio EC50 [6]: 3.45; Ratio EC50 [7]: 4.1; pEC50 [8]: 5.38; pEC50 [9]: 5.38 |
| COc1ccc(S(=O)(=O)N(CC(C)C)C[C@@H](O)[C@H](Cc2ccccc2)NC(=O)c2coc3cc(O)c(O)cc23)cn1 |  | 5.87 | 5.12 | pEC50 [4]: 5.55; pEC50 [5]: 4.64; Ratio EC50 [6]: 12.88; Ratio EC50 [7]: 1.6; pEC50 [8]: 5.75; pEC50 [9]: 5.75 |
| COc1ccc(S(=O)(=O)N(CC(C)C)C[C@@H](O)[C@H](Cc2ccccc2)NC(=O)c2cc3ccc(O)cc3[nH]2)cc1 |  | 6.30 | 3.79 |  |
| CC(C)CN(C[C@@H](O)[C@H](Cc1ccccc1)NC(=O)c1cc2cc(O)ccc2o1)S(=O)(=O)c1ccc(N)cc1 | < 20% | 5.34 |  |  |
| COc1ccc(S(=O)(=O)N(CC(C)C)C[C@@H](O)[C@H](Cc2ccccc2)NC(=O)c2cc3ccc(O)cc3[nH]2)cn1 | < 20% | 6.34 |  |  |
| CC(C)CN(C[C@@H](O)[C@H](Cc1ccccc1)NC(=O)O[C@H]1CO[C@H]2OCC[C@H]21)S(=O)(=O)c1ccc(N)cc1 |  |  |  | pEC50 [8]: 8.70; pEC50 [9]: 8.70 |
| COc1ccc(S(=O)(=O)N(CC(C)C)C[C@@H](O)[C@H](Cc2ccccc2)NC(=O)c2coc3ccc(O)cc23)cc1 |  | 5.69 | 4.08 |  |
| CC(C)CN(C[C@@H](O)[C@H](Cc1ccccc1)NC(=O)c1cc2ccccc2o1)S(=O)(=O)c1ccc(N)cc1 | < 20% | 4.79 |  |  |
| COc1ccc(S(=O)(=O)N(CC(C)C)C[C@@H](O)[C@H](Cc2ccccc2)NC(=O)c2cc3cc(O)ccc3o2)cc1 | < 20% | 5.62 |  |  |
| COc1ccc(S(=O)(=O)N(CC(C)C)C[C@@H](O)[C@H](Cc2ccccc2)NC(=O)c2cc3cc(O)ccc3[nH]2)cn1 | < 20% | 6.13 |  |  |
| COc1ccc(S(=O)(=O)N(CC(C)C)C[C@@H](O)[C@H](Cc2ccccc2)NC(=O)c2cc3cc(O)c(O)cc3[nH]2)cn1 |  | 6.08 | 5.82 | pEC50 [4]: 5.66; pEC50 [5]: 4.98; Ratio EC50 [6]: 61.59; Ratio EC50 [7]: 12.9; pEC50 [8]: 6.77; pEC50 [9]: 6.77 |
| COc1ccc(S(=O)(=O)N(CC(C)C)C[C@@H](O)[C@H](Cc2ccccc2)NC(=O)c2cc3cc(O)c(O)cc3o2)cc1 |  | 5.71 | 5.63 | pEC50 [4]: 4.78; pEC50 [5]: 5.03; Ratio EC50 [6]: 2.12; Ratio EC50 [7]: 3.8; pEC50 [8]: 5.36; pEC50 [9]: 5.36 |
| COc1ccc(S(=O)(=O)N(CC(C)C)C[C@@H](O)[C@H](Cc2ccccc2)NC(=O)c2cc3ccc(O)cc3o2)cn1 |  | 5.55 | 3.65 |  |
| COc1ccc(S(=O)(=O)N(CC(C)C)C[C@@H](O)[C@H](Cc2ccccc2)NC(=O)c2coc3cc(O)ccc23)cc1 |  | 5.81 | 4.22 |  |
| O=C1Nc2ccc(Cl)cc2[C@@](C#CC2CC2)(C(F)(F)F)O1 [EFAVIRENZ] |  |  |  | pEC50 [9]: < 4.00 |
| COc1ccc(S(=O)(=O)N(CC(C)C)C[C@@H](O)[C@H](Cc2ccccc2)NC(=O)c2cc3cc(O)ccc3[nH]2)cc1 | < 20% | 6.24 |  |  |
| CC(C)CN(C[C@@H](O)[C@H](Cc1ccccc1)NC(=O)c1cc2ccc(O)cc2o1)S(=O)(=O)c1ccc(N)cc1 | < 20% | 5.52 |  |  |
| COc1ccc(S(=O)(=O)N(CC(C)C)C[C@@H](O)[C@H](Cc2ccccc2)NC(=O)c2cc3ccccc3[nH]2)cc1 | < 20% | 5.12 |  |  |
| COc1ccc(S(=O)(=O)N(CC(C)C)C[C@@H](O)[C@H](Cc2ccccc2)NC(=O)c2cc3cc(O)ccc3o2)cn1 |  | 5.70 | 3.93 |  |
| CC(C)CN(C[C@@H](O)[C@H](Cc1ccccc1)NC(=O)c1cc2cc(O)ccc2[nH]1)S(=O)(=O)c1ccc(N)cc1 |  | 6.07 | 3.99 |  |
